This note sets out measurements from US20220057378A1, “MICROBIAL MICROFLUIDIC BIOSENSOR” (priority 2015, published 2022).

Common to all, as to format: cell-based
One assay deals with E. coli MG1655/As7. Kind of assay: 8-strain chip induction (fluorescence induction ratio). The settings on record: toxin at t=0, pure water at t=2 hours; arsenic 0.2 μM. The source says: (§1) An overview of the sensor can be seen in FIG. 39. In order to acquire the large amount of data required to successfully train the classifier, five replicates of the fully self-contained device prototype were built, in which the microfluidic devices are mounted and imaged using custom-designed optics as shown in some embodiments herein (Milestone 6.9). The majority of the data for this project was acquired using a novel microfluidic device capable of housing eight different bacterial strains that receive media from a shared source. […] The design was expanded to house 18 strains and we have begun taking data with this new chip to provide larger datasets to the classifier. A detailed CAD drawing of this device can be seen in FIG. 56. The 18 cell trapping regions are vacuum-loaded from 18 downstream fluidic ports. Long, serpentine channels upstream of the trapping regions serve as fluidic buffer zones to prevent the cross-contamination of strains while loading. The toxin concentration is controlled dynamically by a peristaltic pump that mixes a water/toxin combination (representing the source water stream) with a concentrated medium stock.
(§2) In each panel, the time series data for the “on-target” responding strain is plotted in bold.

For another assay, the system named is E. coli MG1655/Co7. The assay is described as above. The settings on record: toxin at t=0, pure water at t=2 hours; chromium(VI) 0.5 μM.
From the text: as §1, §2

For a further assay, the system named is E. coli MG1655/Cr11. The description is as above. The following applies: toxin at t=0, pure water at t=2 hours; chromium(VI) 0.5 μM.
From the text: as §1, §2

The test system of assay [1] is E. coli MG1655 containing pCueCopA. Kind of assay: on-chip step-induction of copper-sensing plasmid pCueCopA (GFP). The following applies: pCueCopA in E. coli MG1655, LB medium. The method, then:
Second, induction of pCue-CopA, a copper-sensing plasmid, was tested in the microfluidic device. A recombinant strain of E. coli MG1655 containing pCueCopA was vacuum-loaded into a microfluidic device, grown to confluence, and step-induced with copper sulfate (CuSO4) in LB medium. Images were collected using an Etaluma LumaScope microscope with 20× objective magnification. Step induction was again performed using the “Dial-A-Wave” automated flow control system. The cells were sequentially exposed to copper concentrations of 0 μM, 25 μM, 52 μM, 77 μM, and 99 μM in 6-h windows.

Take `[As]` [Arsenic]: in the assay on E. coli MG1655/As7, the “GFP response of strain As7” value was “sensitively responding”. Turning to `[Cr+6]` [Chromium(VI)], in the assay with E. coli MG1655/Co7, the “GFP response of strain Co7” value is “responding”. Also, in the assay with E. coli MG1655/Cr11, the “GFP response of strain Cr11” value is reported as “responding”. `[Cu]` [Copper]: the “copper concentration detected on-chip (GFP)” value in assay [1] is 25 µM.
